Data set [1] has as its system LoVo cells. Nature of the data set: Colony formation assay. To be noted: 14 days. It counts as cell-based, human. The source says: LoVo cells at a concentration of 800 cells/well were exposed to various concentrations of ZH-12 for 14 days. After 14 days of treatment, the colonies were fixed with 4% paraformaldehyde, stained with 0.1% crystal violet, and imaged using an upright biological microscope (Olympus BX53, Tokyo, Japan). The experiments were repeated at least three times and plotted via GraphPad 8.0.

Data set [2] concerns p-ATR(Thr1989) and p-CHK1(Ser345). Description: Western blot of ATR/CHK1 signaling in LoVo xenograft tumors. To be noted: LoVo xenograft tumors, 50, 25 and 12.5 mg/kg. The data set is classed as in vivo, Balb/c nude mice. The protocol:
LoVo cells with a density of 1 × 10^6 were inoculated in a small cell culture dish at a single density for 24 h and then treated with the specified concentration of 5% dimethyl sulfoxide or compound at different times. The cells were washed with cold PBS and lysed with RIPA buffer (Beyotime, Shanghai, China) containing protease inhibitors (Beyotime, Shanghai, China) and phosphatase inhibitors (Beyotime, Shanghai, China). After lysis of the total cell solution on ice for 60 min, the lysate was centrifuged (12,000 rpm, 4 °C, 20 min); The total protein concentrations obtained were determined using the BCA kit (Beyotime, Shanghai, China). A proper 6 × loading buffer was added before use, and the samples were denatured by boiling. Then, 30–100 μg of protein was loaded onto a 4–12% SDS-PAGE gel and then transferred to the PVDF membrane (Millipore). […] The software ImageJ was used to quantify the percentage degradation of proteins. […]
Balb/c nude mice (18–22 g, female, 4 weeks old) were purchased from Hangzhou Medical College (Hangzhou, China). […] Tumor size and animal weight were measured every 3 days. Tumor volume was calculated as tumor volume (cm^3) = (length × width^2)/2. […] The results were obtained from 5 test mice (mean ± SD) and calculated using GraphPad 8.0 software.

Another data set deals with LoVo xenografts. Nature of the data set: LoVo tumor xenograft mouse model, antitumor efficacy and tolerability. It counts as in vivo. The settings on record: for tumor growth inhibition (TGI): days 1-18, single agent. The protocol:
Balb/c nude mice (18–22 g, female, 4 weeks old) were purchased from Hangzhou Medical College (Hangzhou, China). All mice were inoculated subcutaneously in the right flank with 5 × 10^6 LoVo cells to initiate tumor growth. When the mean tumor volume reached approximately 100 mm^3, all mice were randomly divided into 8 groups (n = 5 per group) based on body weight and volume. […] Cisplatin was administered twice a week at the indicated doses. Tumor size and animal weight were measured every 3 days. Tumor volume was calculated as tumor volume (cm^3) = (length × width^2)/2. Tumor inhibition rate (%) = (1 − mean tumor weight in the treatment group/mean tumor weight in the control group) × 100%. The results were obtained from 5 test mice (mean ± SD) and calculated using GraphPad 8.0 software.

In the next data set the test system is HCT116 cells. Nature of the data set: CCK-8 cell proliferation assay, HCT116. The data set is classed as cell-based. The settings on record: Homo sapiens, HCT-116; CCK-8, 72 h, ATM-normal cell line, three independent experiments; read-out: IC50 ± SD, HCT116. The protocol:
(§1) A549, HCT116, NCI-H23, and LoVo cells were purchased from the Cell Resources Center of Shanghai Academy of Life Sciences, Shanghai, China. A549 cells were cultured in McCoy’s5A medium supplemented with 10% FBS (KeyGEN Biotech, Nanjing, China) and 1% penicillin/streptomycin (Gibco, 15070-063). HCT116 cells were cultured in IMDM medium supplemented with 10% FBS (KeyGEN Biotech, Nanjing, China) and 1% penicillin/streptomycin (Gibco, 15070-063). NCI-H23 cells were cultured in RPMI 1640 medium supplemented with 10% FBS (KeyGEN Biotech, Nanjing, China) and 1% penicillin/streptomycin (Gibco, 15070-063). LoVo cells were cultured in F12K medium supplemented with 10% FBS (KeyGEN Biotech, Nanjing, China) and 1% penicillin/streptomycin (Gibco, 15070-063). All cells were cultured in an incubator at 37 °C under a 5% CO2 atmosphere.
(§2) For the assay, 3000/well cells were planted into 96-well plates for 24 h and then treated with the indicated doses of drugs or controls for 72 h. Following the manufacturer’s instructions, cell proliferation/survival was measured using the CCK-8 (KeyGEN Biotech, Nanjing, China) assay and plotted via GraphPad 8.0.

Data set [3] relates to LoVo cells. Nature of the data set: Annexin V-FITC/PI apoptosis assay by flow cytometry. It counts as cell-based, human. The settings on record: 1 μM. The protocol: The percentage of apoptotic cells was determined by the Annexin V-FITC/PI double staining kit (KeyGEN Biotech, Nanjing, China). According to the manufacturer’s instructions, LoVo cells were stained with Annexin V-FITC and PI. The signal of the FITC and PI was recorded by BD FACSCelesta Flow Cytometer (BD FACSCelesta, Becton, Dickinson and Company) and the FlowJo software.

The subject of data set [4] is LoVo cells. Description: CCK-8 cell proliferation assay, LoVo. The data set is classed as cell-based. To be noted: Homo sapiens, CCK-8, 72 h, ATM-deficient cell line, three independent experiments, read-out: IC50 ± SD, LoVo. The protocol: as §1, §2
In a further data set the test system is A549 cells. Nature of the data set: CCK-8 cell proliferation assay, A549. The settings on record: Homo sapiens, CCK-8, 72 h, ATM-normal cell line, three independent experiments, read-out: IC50 ± SD, A549. The data set is classed as cell-based. The protocol:
as §1, §2

Data set [5] deals with LoVo cells. Nature of the data set: Wound healing migration assay. The data set is classed as cell-based, human. The settings on record: 48 h. The protocol: LoVo cells in the logarithmic phase were collected and seeded in 6-well plates and cultured overnight. A straight line was drawn across the cell with a sterile pipette tip. A culture medium containing different concentrations of ZH-12 or 0.1% DMSO (10% FBS) was added. Scratch widths were recorded under an inverted microscope (Olympus, Waltham, MA, USA) at 0 h and 48 h.

The next data set has as its system NCI-H23 cells. Nature of the data set: CCK-8 cell proliferation assay, NCI-H23. The data set is classed as cell-based. The settings on record: Homo sapiens, CCK-8, 72 h, ATM-deficient cell line, three independent experiments, read-out: IC50 ± SD, NCI-H23. The protocol:
as §1, §2

The test system of the next data set is 207 kinases. Nature of the data set: Kinase panel selectivity screen at 1 μM. To be noted: single concentration of 1 μM, duplicate. The data set is classed as biochemical, human.
Data set [6] has as its system p-ATR(Thr1989) and p-CHK1(Ser345). Description: Western blot of ATR/CHK1 signaling in HU-treated LoVo cells. The data set is classed as cell-based, human. The settings on record: LoVo cells treated with HU (hydroxyurea). The protocol:
LoVo cells with a density of 1 × 10^6 were inoculated in a small cell culture dish at a single density for 24 h and then treated with the specified concentration of 5% dimethyl sulfoxide or compound at different times. The cells were washed with cold PBS and lysed with RIPA buffer (Beyotime, Shanghai, China) containing protease inhibitors (Beyotime, Shanghai, China) and phosphatase inhibitors (Beyotime, Shanghai, China). After lysis of the total cell solution on ice for 60 min, the lysate was centrifuged (12,000 rpm, 4 °C, 20 min); The total protein concentrations obtained were determined using the BCA kit (Beyotime, Shanghai, China). A proper 6 × loading buffer was added before use, and the samples were denatured by boiling. Then, 30–100 μg of protein was loaded onto a 4–12% SDS-PAGE gel and then transferred to the PVDF membrane (Millipore). The membrane was occluded for 1 h, incubated overnight with primary antibody at 4 °C, followed by washing 3 times with Tris-buffered saline and Tween 20 (TBST) for 10 min. After incubation with a second antibody with horseradish peroxidase for 60 min at room temperature, the membrane was washed 3 times for 10 min with TBST. Finally, blotting was performed with an enhanced chemiluminescence assay kit (KeyGEN Biotech, Nanjing, China). The software ImageJ was used to quantify the percentage degradation of proteins. […]

The next data set has as its target ATR (Homo sapiens, UniProt Q13535). Nature of the data set: In vitro inhibitory activity against the ATR enzyme. It counts as biochemical.
The test system of data set [7] is LoVo cells. Description: Comet assay for DNA damage. It counts as cell-based, human. To be noted: 72 h. The protocol:
The comet assay was performed following the protocol of the manufacturer of the Comet Assay Kit (KeyGEN Biotech, Nanjing, China). […] After 3 days of treatment, the cells (1 × 10^4/mL) were collected, mixed with low-melting agarose at a ratio of 1:10 (v/v), layered on slides, lysed in lysis buffer at 4 °C for 2 h, and then lysed in alkaline lysis solution at room temperature for 30 min. Following electrophoresis, the cells were stained with PI and observed with an […] biomicroscope (Olympus BX53, Tokyo, Japan). Three images were randomly captured per slide.

Structures are written as SMILES. Where “and” joins values, the source holds several entries; their conditions need not be identical. Equal entries are not always repeated. Where two headings read alike, the source gives them in different places.

Sequence of ATR (Q13535 whole entry): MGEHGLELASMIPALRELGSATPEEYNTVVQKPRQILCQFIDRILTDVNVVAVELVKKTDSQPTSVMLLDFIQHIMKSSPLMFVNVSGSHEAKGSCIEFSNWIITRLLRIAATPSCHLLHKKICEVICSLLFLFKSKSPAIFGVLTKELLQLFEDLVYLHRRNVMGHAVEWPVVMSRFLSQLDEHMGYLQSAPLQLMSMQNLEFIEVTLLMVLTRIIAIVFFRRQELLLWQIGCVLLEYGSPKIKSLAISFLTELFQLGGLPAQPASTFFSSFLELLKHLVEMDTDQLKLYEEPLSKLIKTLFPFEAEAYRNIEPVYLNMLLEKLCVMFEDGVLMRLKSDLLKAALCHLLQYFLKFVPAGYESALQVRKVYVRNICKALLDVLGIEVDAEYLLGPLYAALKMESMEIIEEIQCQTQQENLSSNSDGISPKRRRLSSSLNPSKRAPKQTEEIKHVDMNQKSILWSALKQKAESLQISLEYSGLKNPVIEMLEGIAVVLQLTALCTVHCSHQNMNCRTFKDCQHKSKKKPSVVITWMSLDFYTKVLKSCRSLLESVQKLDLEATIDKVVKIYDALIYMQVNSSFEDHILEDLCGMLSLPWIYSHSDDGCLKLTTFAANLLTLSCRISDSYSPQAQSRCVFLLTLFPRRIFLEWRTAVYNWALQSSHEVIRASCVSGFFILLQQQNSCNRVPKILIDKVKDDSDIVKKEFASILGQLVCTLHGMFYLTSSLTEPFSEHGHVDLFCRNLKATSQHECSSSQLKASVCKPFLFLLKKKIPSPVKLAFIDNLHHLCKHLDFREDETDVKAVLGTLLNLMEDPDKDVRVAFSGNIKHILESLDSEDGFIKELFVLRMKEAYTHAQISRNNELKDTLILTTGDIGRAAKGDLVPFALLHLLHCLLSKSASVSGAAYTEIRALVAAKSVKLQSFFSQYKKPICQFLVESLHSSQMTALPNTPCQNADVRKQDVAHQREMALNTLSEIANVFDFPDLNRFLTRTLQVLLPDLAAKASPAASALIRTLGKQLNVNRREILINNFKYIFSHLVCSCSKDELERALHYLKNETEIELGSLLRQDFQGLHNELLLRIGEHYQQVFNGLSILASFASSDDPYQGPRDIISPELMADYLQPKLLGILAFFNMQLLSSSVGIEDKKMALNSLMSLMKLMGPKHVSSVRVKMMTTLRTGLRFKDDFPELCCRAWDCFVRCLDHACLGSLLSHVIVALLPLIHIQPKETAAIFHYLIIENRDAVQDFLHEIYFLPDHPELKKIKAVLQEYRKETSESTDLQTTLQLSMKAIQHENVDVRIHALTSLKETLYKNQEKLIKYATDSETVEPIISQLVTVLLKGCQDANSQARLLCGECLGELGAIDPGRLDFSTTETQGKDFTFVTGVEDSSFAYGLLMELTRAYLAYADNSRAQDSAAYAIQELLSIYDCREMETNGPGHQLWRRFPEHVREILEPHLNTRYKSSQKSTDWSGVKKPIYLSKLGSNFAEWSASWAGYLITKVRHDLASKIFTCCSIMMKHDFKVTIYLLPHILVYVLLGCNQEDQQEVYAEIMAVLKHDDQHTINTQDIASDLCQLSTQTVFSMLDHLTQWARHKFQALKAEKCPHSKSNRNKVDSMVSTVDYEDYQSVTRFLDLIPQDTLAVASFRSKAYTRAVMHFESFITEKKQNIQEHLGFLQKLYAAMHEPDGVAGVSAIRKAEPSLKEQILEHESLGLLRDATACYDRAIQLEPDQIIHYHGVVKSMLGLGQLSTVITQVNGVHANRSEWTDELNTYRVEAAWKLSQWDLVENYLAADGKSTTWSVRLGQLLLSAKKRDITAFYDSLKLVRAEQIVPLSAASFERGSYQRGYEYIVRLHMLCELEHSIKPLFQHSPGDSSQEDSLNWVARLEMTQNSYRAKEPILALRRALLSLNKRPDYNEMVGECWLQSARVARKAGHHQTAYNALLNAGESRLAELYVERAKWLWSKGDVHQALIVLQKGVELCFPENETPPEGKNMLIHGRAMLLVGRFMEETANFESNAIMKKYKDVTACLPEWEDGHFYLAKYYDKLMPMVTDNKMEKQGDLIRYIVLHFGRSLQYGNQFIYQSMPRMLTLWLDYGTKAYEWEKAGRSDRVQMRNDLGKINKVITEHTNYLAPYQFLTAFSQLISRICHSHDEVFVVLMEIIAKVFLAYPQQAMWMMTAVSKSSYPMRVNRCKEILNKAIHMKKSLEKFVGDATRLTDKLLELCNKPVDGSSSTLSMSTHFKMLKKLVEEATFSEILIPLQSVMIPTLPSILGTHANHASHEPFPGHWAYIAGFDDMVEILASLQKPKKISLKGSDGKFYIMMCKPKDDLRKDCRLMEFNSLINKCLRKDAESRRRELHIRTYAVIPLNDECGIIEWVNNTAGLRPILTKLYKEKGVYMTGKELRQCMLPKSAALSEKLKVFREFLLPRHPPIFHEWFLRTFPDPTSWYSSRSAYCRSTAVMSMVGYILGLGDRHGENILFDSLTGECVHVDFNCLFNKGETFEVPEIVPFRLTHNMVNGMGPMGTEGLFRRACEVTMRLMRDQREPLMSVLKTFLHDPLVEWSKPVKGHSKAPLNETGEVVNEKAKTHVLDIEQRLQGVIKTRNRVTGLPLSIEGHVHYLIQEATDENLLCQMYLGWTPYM
Sequence of ATR (Q8WXE1 whole entry partner): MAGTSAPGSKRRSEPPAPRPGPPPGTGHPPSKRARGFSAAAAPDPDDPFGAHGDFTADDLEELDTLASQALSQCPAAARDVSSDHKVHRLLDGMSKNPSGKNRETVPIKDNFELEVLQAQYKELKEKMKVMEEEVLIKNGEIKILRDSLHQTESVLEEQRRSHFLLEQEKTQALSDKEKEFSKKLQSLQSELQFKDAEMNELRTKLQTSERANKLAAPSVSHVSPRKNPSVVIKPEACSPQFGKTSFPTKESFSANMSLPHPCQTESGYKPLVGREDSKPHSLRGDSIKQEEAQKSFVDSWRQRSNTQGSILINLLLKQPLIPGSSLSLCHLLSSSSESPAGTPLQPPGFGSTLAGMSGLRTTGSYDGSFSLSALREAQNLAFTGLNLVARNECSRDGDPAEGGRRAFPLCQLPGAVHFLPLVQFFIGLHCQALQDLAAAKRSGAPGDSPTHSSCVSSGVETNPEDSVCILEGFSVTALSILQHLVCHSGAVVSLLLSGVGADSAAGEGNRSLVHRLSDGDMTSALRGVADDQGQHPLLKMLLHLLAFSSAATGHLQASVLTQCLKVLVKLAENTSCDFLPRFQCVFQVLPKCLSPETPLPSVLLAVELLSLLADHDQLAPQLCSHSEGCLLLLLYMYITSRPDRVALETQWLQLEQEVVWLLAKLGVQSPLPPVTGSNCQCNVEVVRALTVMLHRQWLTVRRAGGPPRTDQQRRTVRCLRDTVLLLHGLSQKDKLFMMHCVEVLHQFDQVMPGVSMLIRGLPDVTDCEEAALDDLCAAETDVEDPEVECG

As to `C[C@@H]1COCCN1c1nc(-c2cccc3[nH]ccc23)nc2c1CCN(C(=O)CC#N)C2` [ZH-12, (R)-3-(2-(1H-indol-4-yl)-4-(3-methylmorpholino)-5,8-dihydropyrido[3,4-d]pyrimidin-7(6H)-yl)-3-oxopropanenitrile], the “colony formation (cell proliferation)” value with LoVo cells [1] is listed as “inhibited cell proliferation dose-dependently”. Also, in data set [2], the “ATR phosphorylation (p-ATR Thr1989) and CHK1 phosphorylation (p-CHK1 Ser345) in tumors” value was “significantly inhibited ATR phosphorylation”. For the same compound, the “tumor growth inhibition (TGI)” value in the data set with LoVo xenografts (12.5 mg/kg, intraperitoneally, twice daily) was 27.0%; in the data set on LoVo xenografts (25 mg/kg twice daily, AZD6738 orally, ZH-12 intraperitoneally), 39.5%; in the data set with LoVo xenografts (50 mg/kg, intraperitoneally, twice daily) it was 53.7% and 53.8%. In addition, the “body weight loss or toxicity” value in the data set with LoVo xenografts (ZH-12 12.5, 25 and 50 mg/kg BID for 18 days, single agent) is “No significant body weight loss or toxicity was observed”. In addition, the IC50 turned out to be 1610 ± 80 nM with HCT116 cells; 290 ± 10 nM in the data set on LoVo cells [4]; 4740 ± 270 nM in the data set on A549 cells; 770 ± 130 nM in the data set on NCI-H23 cells; 6.81 ± 0.04 nM at ATR (mean ± SD of two independent experiments, read-out: ATR IC50 ± SD); 6.8 nM on ATR (read-out: ATR IC50). In addition, the “apoptosis effect (percentage of apoptotic cells)” value with LoVo cells [3] is on record as 33.8%. For the same compound, the “cell migration, wound healing” value in the data set on LoVo cells [5] was “inhibited LoVo cell migration in a dose-dependent manner”. Besides, the “inhibitory activities against 207 kinases” value with 207 kinases is on record as “weak or no inhibitory activities against 207 kinases”. In addition, in data set [6], the “phosphorylation of ATR and CHK1, Western blot” value was “inhibited the phosphorylation of ATR and its downstream kinase CHK1 in a dose-dependent manner”. In addition, the “DNA damage, comet assay” value in the data set with LoVo cells [7] was “induced significant amounts of DNA damage dose-dependently”. In addition, the “tail intensity, comet assay” value in the data set on LoVo cells [7] (0.5 µM) is given as “comparable tail intensity to AZD6738”.

The record behind these values is publication PMC10254649, “Design, Synthesis, and Biological Evaluation of Potent and Selective Inhibitors of Ataxia Telangiectasia Mutated and Rad3-Related (ATR) Kinase for the Efficient Treatment of Cancer” (Molecules, 2023).
